Data from publication PMC6695355, “Alanine Scanning Studies of the Antimicrobial Peptide Aurein 1.2” (Probiotics and Antimicrobial Proteins, 2018).
Values after ≈ are worked out from the molar mass of the structure shown. Where two headings read alike, the source gives them in different places. Where a SMILES comes first, the peptide text is derived from it.

Experiments:
[1] = tested on: S. aureus ATCC 25923 biofilm formation; assay type: cell-based, Staphylococcus aureus; conditions: ATCC 25923, 24 h
Experimental: (§1) The minimum inhibitory concentrations (MICs) of test compounds were assessed by broth microdilution method on 96-well plates, according to the guidelines of Clinical and Laboratory Standards Institute (CLSI). For this purpose, reference strains of bacteria: S. aureus ATCC 25923, E. faecalis PCM 2673, E. coli ATCC 25922, and P. aeruginosa ATCC 9027; and fungus: C. albicans ATCC 10231 were used (The Polish Collection of Microorganism, Polish Academy of Sciences, Wrocław, Poland). Bacteria at initial inoculums of 0.5 × 10^5 CFU/mL in Mueller Hinton Broth (MHB), and fungi at initial inoculums of 2 × 10^3 CFU/mL in RPMI-1640, were exposed to the compounds over the concentration range of 1–512 μg/mL. The polystyrene plates were incubated at 37 °C for 18 h with bacteria and for 24 h with C. albicans. The MIC was taken as the lowest concentration at which a noticeable growth of microorganisms was inhibited. Minimum biofilm eradication concentrations (MBECs) were determined using a previously described protocol. For this purpose, 96-well polystyrene flat-bottom plates and a resazurin (7-hydroxy-3H-phenoxazin-3-one 10-oxide) were used. In this assay, a specific feature of resazurin is utilized, which upon the contact with living cells is metabolized and reduced from the basic blue form to pink resorufin. Briefly, 24-h cultures of microorganisms were diluted 1,000-fold and 100 μL of that suspension was added into the test plates. After 24 h of incubation at 37 °C, the wells of the plates were rinsed three times with phosphate buffer saline (PBS) to remove non-adherent cells. Subsequently, 100 μL of test compounds in concentration range (diluted in appropriate media) were added to each well. After 24 h of incubation at 37 °C, 20 μL of the resazurin (4 mg/mL) was added. The MBEC was read after 1 h. Additionally, anti-adhesive properties of the compounds were also analyzed. The assay was conducted on 96-well polystyrene flat-bottom plates. The preparation of inoculums was followed by a 500-fold dilution of 24-h cultures of microorganisms. Briefly, to evaluate the effect of the peptides in preventing biofilm formation, 50 μL of compounds in concentration range, diluted in appropriate medium, were prepared. Subsequently, the 50 μL of the bacterial/fungal inoculums were added to reach the same microbial density as that in MBEC assay. After 24 h of incubation at 37 °C, the wells were rinsed three times with PBS and the fresh media with resazurin (0.6 mg/mL) were added. Then, after 1 h of incubation, the minimum biofilm inhibitory concentrations (MBIC) were read. MBECs as well as MBICs were determined as the lowest concentration at which the reduction of resazurin was lower or equal (10% ± 0.5%) as compared to positive (100%) and negative (0%) controls. All experiments were performed in triplicate.

S. aureus ATCC 25923 = assay type: cell-based, Staphylococcus aureus; conditions: ATCC 25923, 18 h
Experimental: as §1

[2] = tested on: S. aureus ATCC 25923 biofilm; assay type: cell-based, Staphylococcus aureus; conditions: ATCC 25923, 24 h
Experimental: as §1

C. albicans ATCC 10231 = assay type: cell-based, Candida albicans; conditions: ATCC 10231, 24 h
Experimental: as §1

[3] = tested on: C. albicans ATCC 10231 biofilm formation; assay type: cell-based, Candida albicans; conditions: ATCC 10231, 24 h
Experimental: as §1

[4] = tested on: C. albicans ATCC 10231 biofilm; assay type: cell-based, Candida albicans; conditions: ATCC 10231, 24 h
Experimental: as §1

[5] = tested on: human red blood cells (RBCs); test: Hemolysis assay; assay type: cell-based
Experimental: The hemolytic activity of the peptides was determined using fresh human red blood cells (RBCs) collected from a healthy human donor according to the procedure described in the literature. Fresh RBCs with EDTA as anticoagulant were rinsed three times with a PBS by centrifugation at 800×g for 10 min and resuspension in PBS. Serial dilution of the peptides in PBS (1–256 μg/mL) on 96-well polystyrene plates was prepared and the stock solution of RBCs was added up to a final volume of 100 μL with a 4% concentration of erythrocytes (v/v). The control wells for 0 and 100% hemolysis contained of RBCs suspended in PBS and 1% of Triton-X 100, respectively. Subsequently, the plates were incubated for 1 h at 37 °C and then centrifuged at 800×g for 10 min at 4 °C (Sorvall ST 16R Centrifuge, Thermo Scientific). After centrifugation, the supernatant was carefully […] to new microtiter plates and the release of hemoglobin was measured at 540 nm (Multiskan™ GO Microplate Spectrophotometer, Thermo Scientific). All experiments were conducted in triplicate.

[6] = tested on: E. faecalis PCM 2673 biofilm; assay type: cell-based, Enterococcus faecalis; conditions: 24 h
Experimental: as §1

E. faecalis PCM 2673 = assay type: cell-based, Enterococcus faecalis; conditions: PCM 2673, 18 h
Experimental: as §1

[7] = tested on: E. faecalis PCM 2673 biofilm formation; assay type: cell-based, Enterococcus faecalis; conditions: 24 h
Experimental: as §1

in vitro = in vitro ADME; conditions: bovine, serum
Experimental: To assess serum stability, the peptides (0.5 mg) were dissolved in 4 mL of 25% (v/v) fetal bovine serum (FBS) in PBS and incubated at 37 °C. The aliquots of 100 μL of the test samples were transferred to 96-well polystyrene plates in triplicate for each time point. Samples were quenched at zero time (t0) and after 6 h of incubation at 37 °C by addition of 100 μL of ice-cold acetonitrile and stored at 4 °C for 10 min. Afterwards, the samples were centrifuged at 13,000×g for 20 min at 4 °C and diluted 1:1 with HPLC-grade water. All samples were analyzed using the Waters Alliance e2695 system with Waters Acquity QDa Detector (software–Empower®3). Analyses were conducted on an Agilent Zorbax SB-C18 RP-18 column (4.6 × 50 mm, 1.8-μm particle size, 80-Å pore size) using a linear 30–60% acetonitrile (B) gradient in deionized water (A) over 6 min at 25.0 ± 0.1 °C, at a flow rate of 0.5 mL/min and MS working in selected ion recording (SIR) mode (A—0.1% aqueous formic acid (FA) and B—0.1% FA in acetonitrile). The percentage of peptide remaining intact was calculated from peak areas of samples at t0 and after 6 h of incubation in serum (the % of remaining peptide = peak area after 6 h/peak area at t0). The mass-to-charge ratios selected for SIR mode were based on values obtained from full spectrum analysis of each peptide and are presented in Table 1.

[8] = tested on: E. coli ATCC 25922 biofilm formation; assay type: cell-based, Escherichia coli; conditions: ATCC 25922, 24 h
Experimental: as §1

[9] = tested on: E. coli ATCC 25922 biofilm; assay type: cell-based, Escherichia coli; conditions: ATCC 25922, 24 h
Experimental: as §1

E. coli ATCC 25922 = assay type: cell-based, Escherichia coli; conditions: ATCC 25922, 18 h
Experimental: as §1

[10] = tested on: P. aeruginosa ATCC 9027 biofilm; assay type: cell-based, Pseudomonas aeruginosa; conditions: ATCC 9027, 24 h
Experimental: as §1

[11] = tested on: P. aeruginosa ATCC 9027 biofilm formation; assay type: cell-based, Pseudomonas aeruginosa; conditions: ATCC 9027, 24 h
Experimental: as §1

P. aeruginosa ATCC 9027 = assay type: cell-based, Pseudomonas aeruginosa; conditions: ATCC 9027, 18 h
Experimental: as §1

SMILES | MBIC, S. aureus ATCC 25923 [1] [µg/mL] | MIC, S. aureus ATCC 25923 (S. aureus ATCC 25923) [µg/mL] | MBEC, S. aureus ATCC 25923 [2] [µg/mL] | MIC, C. albicans ATCC 10231 (C. albicans ATCC 10231) [µg/mL] | MBIC, C. albicans ATCC 10231 [3] [µg/mL] | MBEC, C. albicans ATCC 10231 [4] [µg/mL] | Percentage of hemolysis at 1 μg/mL ([5]; red cells of human, 1 h) [%] | Percentage of hemolysis at 2 μg/mL ([5]; red cells of human, 1 h) [%] | Percentage of hemolysis at 4 μg/mL ([5]; red cells of human, 1 h) [%] | Percentage of hemolysis at 8 μg/mL ([5]; red cells of human, 1 h) [%] | Percentage of hemolysis at 32 μg/mL ([5]; red cells of human, 1 h) [%] | Percentage of hemolysis at 64 μg/mL ([5]; red cells of human, 1 h) [%] | Percentage of hemolysis at 128 μg/mL ([5]; red cells of human, 1 h) [%] | Percentage of hemolysis at 256 μg/mL ([5]; red cells of human, 1 h) [%] | MBEC, E. faecalis PCM 2673 [6] [µg/mL] | MIC, E. faecalis PCM 2673 (E. faecalis PCM 2673) [µg/mL] | MBIC, E. faecalis PCM 2673 [7] [µg/mL] | remaining at 6 h, 0.125 mg/mL (in vitro) [%] | MBIC, E. coli ATCC 25922 [8] [µg/mL] | MBEC, E. coli ATCC 25922 [9] [µg/mL] | further results
CC[C@H](C)[C@H](NC(=O)[C@H](CCCCN)NC(=O)[C@H](CCCCN)NC(=O)[C@@H](NC(=O)[C@@H](NC(=O)[C@H](CC(=O)O)NC(=O)[C@H](Cc1ccccc1)NC(=O)[C@H](CC(C)C)NC(=O)CN)[C@@H](C)CC)[C@@H](C)CC)C(=O)N[C@@H](C)C(=O)N[C@@H](CCC(=O)O)C(=O)N[C@@H](CO)C(=O)N[C@@H](C)C(N)=O [Peptide F13A] (H-GLFDIIKKIAESA-NH2) | >512 | > 512 | 128 | 512 (≈ 365 µM) | 8 | > 512 | 0.3 | 0.6 | 0.5 | 0.4 | 0.0 | 0.0 | 0.0 | 0.0 | > 512 | 128 (≈ 91.2 µM) | >512 | 54 | >512 | 512 | Percentage of hemolysis at 16 μg/mL [5]: 0,0%; Hemolysis over the whole concentration range ([5]; 1–256 μg/mL, 4% human RBCs in PBS, 1 h, 37 °C): did not cause the lysis of RBCs; MIC, E. coli ATCC 25922 (E. coli ATCC 25922): 128 µg/mL (≈ 91.2 µM); MBEC, P. aeruginosa ATCC 9027 [10]: > 512 µg/mL; MBIC, P. aeruginosa ATCC 9027 [11]: >512 µg/mL; MIC, P. aeruginosa ATCC 9027 (P. aeruginosa ATCC 9027): > 512 µg/mL
CC[C@H](C)[C@H](NC(=O)[C@H](CCCCN)NC(=O)[C@H](CCCCN)NC(=O)[C@@H](NC(=O)[C@@H](NC(=O)[C@H](CC(=O)O)NC(=O)[C@H](Cc1ccccc1)NC(=O)[C@H](CC(C)C)NC(=O)[C@H](C)N)[C@@H](C)CC)[C@@H](C)CC)C(=O)N[C@@H](C)C(=O)N[C@@H](CCC(=O)O)C(=O)N[C@@H](CO)C(=O)N[C@@H](Cc1ccccc1)C(N)=O [Peptide G1A] (H-ALFDIIKKIAESF-NH2) | 512 | 512 (≈ 343 µM) | 512 | 128 (≈ 85.7 µM) | 4 | > 512 | 0.0 | 0.0 | 0.0 | 0.0 | 0.0 | 0.0 | 0.3 | 4.2 | > 512 | 128 (≈ 85.7 µM) | 256 | 16 | 128 | 256 | Percentage of hemolysis at 16 μg/mL ([5]; red cells of human, 1 h, 16): 0.0%; MIC, E. coli ATCC 25922 (E. coli ATCC 25922): 128 µg/mL (≈ 85.7 µM); MBEC, P. aeruginosa ATCC 9027 [10]: 512 µg/mL; MBIC, P. aeruginosa ATCC 9027 [11]: 256 µg/mL; MIC, P. aeruginosa ATCC 9027 (P. aeruginosa ATCC 9027): 512 µg/mL (≈ 343 µM)
CC[C@H](C)[C@H](NC(=O)[C@H](C)NC(=O)[C@H](CC(=O)O)NC(=O)[C@H](Cc1ccccc1)NC(=O)[C@H](CC(C)C)NC(=O)CN)C(=O)N[C@@H](CCCCN)C(=O)N[C@@H](CCCCN)C(=O)N[C@H](C(=O)N[C@@H](C)C(=O)N[C@@H](CCC(=O)O)C(=O)N[C@@H](CO)C(=O)N[C@@H](Cc1ccccc1)C(N)=O)[C@@H](C)CC [Peptide I5A] (H-GLFDAIKKIAESF-NH2) | > 512 | > 512 | > 512 | 256 (≈ 178 µM) | 4 | 512 | 0.2 | 0.3 | 0.2 | 0.0 | 0.0 | 0.1 | 0.0 | 1.1 | > 512 | 128 (≈ 89 µM) | 512 | 71 | 512 | 512 | Percentage of hemolysis at 16 μg/mL ([5]; red cells of human, 1 h, 16): 0.0%; MIC, E. coli ATCC 25922 (E. coli ATCC 25922): 256 µg/mL (≈ 178 µM); MBEC, P. aeruginosa ATCC 9027 [10]: > 512 µg/mL; MBIC, P. aeruginosa ATCC 9027 [11]: > 512 µg/mL; MIC, P. aeruginosa ATCC 9027 (P. aeruginosa ATCC 9027): 512 µg/mL (≈ 356 µM)
